Experimental data reported in ChEMBL document CHEMBL4417641, “Use of 2-(substituted phenylamino)benzoic acid fto inhibitor in treating leukemia” (2018).
The source made the active and inactive calls. The rule behind the calls is not given here.

Legend:
[1] = Cytotoxicity against human MM6 cells assessed as inhibition of cell growth incubated for 72 hrs by MTS assay relative to control; format: functional
[2] = target: Alpha-ketoglutarate-dependent dioxygenase FTO (Homo sapiens, UniProt Q9C0B1); experiment: Inhibition of FTO (unknown origin) assessed as reduction in demethylation using 39nt-m6 A-ssDNA and 2OG incubated for 2 hrs by non-denaturing polyacrylamide electrophoresis method
Chain of Alpha-ketoglutarate-dependent dioxygenase FTO (Q9C0B1 whole entry): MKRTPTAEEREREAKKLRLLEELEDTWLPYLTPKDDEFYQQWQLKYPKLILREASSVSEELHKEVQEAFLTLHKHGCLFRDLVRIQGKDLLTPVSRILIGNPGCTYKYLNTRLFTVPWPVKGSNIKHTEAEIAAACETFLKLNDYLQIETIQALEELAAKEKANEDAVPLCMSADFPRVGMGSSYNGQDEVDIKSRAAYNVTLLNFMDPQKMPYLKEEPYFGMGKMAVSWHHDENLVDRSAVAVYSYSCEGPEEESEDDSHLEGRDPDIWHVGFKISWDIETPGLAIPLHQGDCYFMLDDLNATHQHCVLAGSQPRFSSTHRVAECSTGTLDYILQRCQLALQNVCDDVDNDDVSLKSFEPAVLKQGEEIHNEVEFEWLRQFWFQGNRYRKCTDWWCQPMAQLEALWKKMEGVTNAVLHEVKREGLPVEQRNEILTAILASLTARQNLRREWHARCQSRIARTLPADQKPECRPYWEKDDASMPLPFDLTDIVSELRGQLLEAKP

NB-4 [3] = experiment: Cytotoxicity against human NB4 cells assessed as inhibition of cell growth incubated for 72 hrs by MTS assay relative to control; format: functional
NB-4 [4] = experiment: Cytotoxicity against human NB4 cells assessed as inhibition of cell growth incubated for 72 hrs by MTS assay; format: functional, cell-based; settings: NB-4, 72 h
[5] = Cytotoxicity against human MM6 cells assessed as inhibition of cell growth incubated for 48 hrs by MTS assay; format: functional, cell-based
[6] = Cytotoxicity against human MM6 cells assessed as inhibition of cell growth incubated for 72 hrs by MTS assay; format: functional, cell-based
NB-4 [7] = experiment: Cytotoxicity against human NB4 cells assessed as inhibition of cell growth incubated for 48 hrs by MTS assay; format: functional, cell-based; settings: NB-4, 48 h
MONO-MAC-6 [8] = experiment: Antitumor activity against human MONO-MAC-6 cells xenografted in NSG mouse assessed as improvement in spleen swelling by measuring spleen weight at 2 mg/kg, ip dosed for ten consecutive days (reference value: 55 mg); format: functional
MONO-MAC-6 [9] = experiment: Antitumor activity against human MONO-MAC-6 cells xenografted in NSG mouse assessed as mouse survival at 2 mg/kg, ip dosed for ten consecutive days and measured after 55 days post treatment; format: functional; settings: MONO-MAC-6, ip, 1320 h
MONO-MAC-6 [10] = experiment: Antitumor activity against human MONO-MAC-6 cells xenografted in NSG mouse assessed as mouse survival at 2 mg/kg, ip dosed for ten consecutive days and measured after 62 days post treatment; format: functional; settings: MONO-MAC-6, ip, 1488 h
MONO-MAC-6 [11] = experiment: Antitumor activity against human MONO-MAC-6 cells xenografted in NSG mouse assessed as mouse survival at 2 mg/kg, ip dosed for ten consecutive days and measured after 60 days post treatment; format: functional; settings: MONO-MAC-6, ip, 1440 h
MONO-MAC-6 [12] = experiment: Antitumor activity against human MONO-MAC-6 cells xenografted in NSG mouse assessed as improvement in liver swelling by measuring liver weight at 2 mg/kg, ip dosed for ten consecutive days (reference value: 2200 mg); format: functional
MONO-MAC-6 [13] = experiment: Antitumor activity against human MONO-MAC-6 cells xenografted in NSG mouse assessed as mouse survival at 2 mg/kg, ip dosed for ten consecutive days and measured after 40 days post treatment; format: functional; settings: MONO-MAC-6, ip, 960 h
MONO-MAC-6 [14] = experiment: Antitumor activity against human MONO-MAC-6 cells xenografted in NSG mouse assessed as reduction in tumor cell transplantation efficiency at 2 mg/kg, ip dosed for ten consecutive days and measured after 40 to days post treatment; format: functional, organism-based
MONO-MAC-6 [15] = experiment: Antitumor activity against human MONO-MAC-6 cells xenografted in NSG mouse assessed as mouse survival at 2 mg/kg, ip dosed for ten consecutive days and measured after 120 days post treatment; format: functional; settings: MONO-MAC-6, ip, 2880 h

**Q.** Which “growth inhibition (GI)” value [1] does the source give for `O=C(O)c1ccccc1Nc1c(Cl)cc(-c2ccncc2)cc1Cl` here?
**A.** 46%

**Q.** And the IC50 [2]?
**A.** 4.6 µM

**Q.** What about the “growth inhibition (GI)” value (NB-4 [3]) of the same compound?
**A.** 39%

**Q.** Which results are given for `Cc1noc(C)c1-c1cc(Cl)c(Nc2ccccc2-c2noc(=O)[nH]2)c(Cl)c1`?
**A.** IC50 (NB-4 [4]): 5.3 µM; growth inhibition (GI) [1]: 100%; IC50 [2]: 1.1 µM; IC50 [5]: 9.9 µM; IC50 [6]: 5.8 µM; IC50 (NB-4 [7]): 6.3 µM; growth inhibition (GI) (NB-4 [3]): 100%

**Q.** Which results are given for `O=C(O)c1ccccc1Nc1c(Cl)cc(-c2ccn[nH]2)cc1Cl`?
**A.** growth inhibition (GI) [1]: 29%; IC50 [2]: 7.6 µM; growth inhibition (GI) (NB-4 [3]): 25%

**Q.** With `Cc1noc(C)c1-c1cc(Cl)c(Nc2ccccc2C(=O)NO)c(Cl)c1` as the compound, how does the IC50 (NB-4 [4]) read?
**A.** 0.8 µM

**Q.** What about the Activity (MONO-MAC-6 [8]) of the same compound?
**A.** 18 mg

**Q.** What about the “growth inhibition (GI)” value [1] of the same compound?
**A.** 100%

**Q.** And the IC50 [2]?
**A.** 1.6 µM

**Q.** And the survival at 2 mg/kg (MONO-MAC-6 [9])?
**A.** 60%

**Q.** And the IC50 [5]?
**A.** 10.4 µM

**Q.** And the survival at 2 mg/kg (MONO-MAC-6 [10])?
**A.** 30%

**Q.** What about the survival at 2 mg/kg (MONO-MAC-6 [11]) of the same compound?
**A.** 40%

**Q.** And the Activity (MONO-MAC-6 [12])?
**A.** 800 mg

**Q.** What about the IC50 [6] of the same compound?
**A.** 1.5 µM

**Q.** And the survival at 2 mg/kg (MONO-MAC-6 [13])?
**A.** 80%

**Q.** What about the IC50 (NB-4 [7]) of the same compound?
**A.** 4.7 µM

**Q.** What about the Activity (MONO-MAC-6 [14]) of the same compound?
**A.** Active

**Q.** What about the “growth inhibition (GI)” value (NB-4 [3]) of the same compound?
**A.** 100%

**Q.** And the survival at 2 mg/kg (MONO-MAC-6 [15])?
**A.** 15%

**Q.** For `Cc1cc(C)n(-c2cc(Cl)c(Nc3ccccc3C(=O)O)c(Cl)c2)n1`, which IC50 [2] is on record?
**A.** 30 to 50 µM

**Q.** For `O=C(O)c1ccc(-c2cc(Cl)c(Nc3ccccc3C(=O)O)c(Cl)c2)s1`, which IC50 [2] is on record?
**A.** 1.2 µM

**Q.** What does the source list for `Cc1noc(C)c1-c1cc(Cl)c(Nc2ccccc2-c2nn[nH]n2)c(Cl)c1`?
**A.** growth inhibition (GI) [1]: 23%; growth inhibition (GI) (NB-4 [3]): 26%

**Q.** What does the source list for `Cc1noc(C)c1-c1cc(Cl)c(Nc2ccccc2C(=O)O)c(Cl)c1`?
**A.** IC50 (NB-4 [4]): 44.8 µM; growth inhibition (GI) [1]: 75%; IC50 [6]: 23.6 µM; growth inhibition (GI) (NB-4 [3]): 70%

**Q.** With `Cc1n[nH]c(C)c1-c1cc(Cl)c(Nc2ccccc2C(=O)O)c(Cl)c1` as the compound, how does the “growth inhibition (GI)” value [1] read?
**A.** 18%

**Q.** And the “growth inhibition (GI)” value (NB-4 [3])?
**A.** 20%
